Data set [1] concerns the target T1, Catenin beta-1/Cadherin-1 (Homo sapiens, UniProt P35222).
T1 sequence (P35222 whole entry): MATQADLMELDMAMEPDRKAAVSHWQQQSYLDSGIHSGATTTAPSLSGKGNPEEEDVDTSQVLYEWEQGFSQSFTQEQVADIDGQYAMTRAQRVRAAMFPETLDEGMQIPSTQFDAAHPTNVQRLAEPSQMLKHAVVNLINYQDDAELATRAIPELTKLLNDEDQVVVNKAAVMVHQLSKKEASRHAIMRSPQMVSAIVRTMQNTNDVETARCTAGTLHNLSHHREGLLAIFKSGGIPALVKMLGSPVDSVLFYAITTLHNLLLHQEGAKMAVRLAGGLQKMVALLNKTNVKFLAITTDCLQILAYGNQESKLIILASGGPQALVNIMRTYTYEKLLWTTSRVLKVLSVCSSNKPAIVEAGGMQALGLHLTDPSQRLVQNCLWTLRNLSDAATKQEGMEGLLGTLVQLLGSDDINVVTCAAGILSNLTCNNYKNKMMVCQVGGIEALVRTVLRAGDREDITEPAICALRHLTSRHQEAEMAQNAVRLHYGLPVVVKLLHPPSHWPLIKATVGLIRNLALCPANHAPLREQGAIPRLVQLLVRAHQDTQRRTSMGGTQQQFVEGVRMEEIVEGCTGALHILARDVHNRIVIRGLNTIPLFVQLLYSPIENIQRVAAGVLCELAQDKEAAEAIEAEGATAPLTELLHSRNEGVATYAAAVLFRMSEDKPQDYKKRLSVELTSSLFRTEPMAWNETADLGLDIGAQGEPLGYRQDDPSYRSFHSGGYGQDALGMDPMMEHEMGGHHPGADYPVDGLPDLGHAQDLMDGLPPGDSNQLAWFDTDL
T1 sequence (P12830 whole entry): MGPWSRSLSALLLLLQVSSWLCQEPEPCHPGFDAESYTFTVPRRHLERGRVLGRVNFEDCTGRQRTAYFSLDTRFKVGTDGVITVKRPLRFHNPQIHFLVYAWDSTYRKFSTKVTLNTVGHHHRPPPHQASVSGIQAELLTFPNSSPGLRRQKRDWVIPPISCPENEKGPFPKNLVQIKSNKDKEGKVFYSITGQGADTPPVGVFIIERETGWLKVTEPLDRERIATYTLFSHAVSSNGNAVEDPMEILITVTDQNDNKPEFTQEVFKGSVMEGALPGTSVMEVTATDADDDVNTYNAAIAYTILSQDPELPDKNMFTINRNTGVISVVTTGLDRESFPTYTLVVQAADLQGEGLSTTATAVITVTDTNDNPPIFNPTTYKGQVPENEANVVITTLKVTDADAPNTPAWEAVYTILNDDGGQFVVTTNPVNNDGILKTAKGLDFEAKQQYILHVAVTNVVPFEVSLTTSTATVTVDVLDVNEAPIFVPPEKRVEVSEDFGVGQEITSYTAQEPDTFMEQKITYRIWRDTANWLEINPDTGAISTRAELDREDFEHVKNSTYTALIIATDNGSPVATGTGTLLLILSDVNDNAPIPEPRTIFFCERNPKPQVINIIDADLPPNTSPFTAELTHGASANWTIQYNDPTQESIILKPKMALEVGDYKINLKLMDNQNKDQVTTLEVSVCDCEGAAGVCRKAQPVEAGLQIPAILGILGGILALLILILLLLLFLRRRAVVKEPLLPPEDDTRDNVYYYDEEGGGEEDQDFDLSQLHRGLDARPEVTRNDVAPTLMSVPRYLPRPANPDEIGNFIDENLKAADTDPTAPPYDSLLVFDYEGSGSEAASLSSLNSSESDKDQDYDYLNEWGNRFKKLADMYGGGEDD
Briefly: Inhibition of full length beta-catenin (1 to 686 residues) (unknown origin) expressed in Escherichia coli BL21 (DE3)/N-terminal biotinylated human E-cadherin (824 to 877 residues) protein-protein interaction assessed as inhibition constant incubated for 2 hr by Alphascreen assay. On the technique in general: Alpha assays give light when donor and acceptor beads are brought close together.

The nature of data set [2]: Inhibition of full length beta-catenin E155A mutant/N-terminal biotinylated human BCL9 HD2 (350 to 375 residues) protein-protein interaction in human SW480 cells incubated for 1 hr by Alphascreen assay. The class given is cell-based.
The nature of data set [3]: Inhibition of Wnt/beta-catenin transactivation signalling in human HEK293 cells transfected with TOPFlash reporter gene incubated for 24 hrs by TOPFlash luciferase assay. Format: cell-based. Particulars: HEK293, 24 h. A general note: In a reporter assay the amount or activity of a reporter protein is the signal.
Data set [4] is described as follows: Inhibition of full length beta-catenin D145A mutant/N-terminal biotinylated human BCL9 HD2 (350 to 375 residues) protein-protein interaction in human SW480 cells incubated for 1 hr by Alphascreen assay. Format: cell-based.
Data set [5] has as its target T1, Catenin beta-1/Cadherin-1. Briefly: Inhibition of full length beta-catenin (1 to 686 residues) (unknown origin) expressed in Escherichia coli BL21 (DE3)/N-terminal biotinylated human E-cadherin (824 to 877 residues) protein-protein interaction incubated for 2 hr by fluorescence anisotropy binding assay.
Data set [6] in a line: Inhibition of Wnt/beta-catenin transactivation signalling in human SW480 cells transfected with renilla luciferase and TOPFlash reporter gene incubated for 24 hrs by dual-luciferase assay. The class given is cell-based. Particulars: SW480, 24 h.
The nature of data set [7]: Drug uptake in human MDA-MB-231 cells at 2 uM incubated at 37 degree C measured after 6 hrs by HPLC analysis. Format: ADME, cell-based. Particulars: mda-mb-231, 6 h.

For the compound `CC(C)(C)C1CCC(c2cc(C(=O)N3CCC(Oc4cc(N5CCNCC5)ccc4C#N)CC3)ccc2O[C@H]2CCNC2)CC1.Cl.Cl` (mixture of isomers; cis), the Ki in data set [1] amounted to 19 µM; in data set [2] it was 3.6 µM; in data set [4], 6.9 µM. Further, the IC50 in data set [3] was 5.7 µM; in data set [6], 2.6 µM. This compound also registered a Kd in data set [5] of 67 µM. Besides, the Drug uptake in data set [7] is 88 µM.

What is called Ki is a measure of affinity in units of concentration, obtained from inhibition or displacement. As usually defined, the IC50 is the point on the concentration scale where inhibition reaches its midpoint. Low readings indicate inhibition by little substance, high ones a need for much substance. For orientation: Kd means the concentration at which binding is half-saturated. A lower Kd goes with a tighter complex.

Values taken from ChEMBL document CHEMBL5226326, “Discovery of 1-Benzoyl 4-Phenoxypiperidines as Small-Molecule Inhibitors of the β-Catenin/B-Cell Lymphoma 9 Protein-Protein Interaction” (J Med Chem, 2021).
